A short description of the data set: recombinant UMI read abundance after kanamycin selection (control-corrected) (log10(CPM+1)); higher = more efficient recombination; extreme values may be limits of the assay; sequences stand for … in AGTGCAGAGAAAATCGGCCAGTTTTCTCTGCCTGCAGTCCGCATGCCGTGGGACCCCTTGGGTTCTAACCTGTTGCCTAGATTTATGCAGCGGACTGCCTTTCTCCCAAAGTGATAAACCGG…AGGTTGGTTTCACT; site = the 11-nt donor. Summed up: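 Sequenced counts of recombinant UMIs were turned into CPM, averaged across replicates and scaled with control-derived factors. The reported figure is log10(CPM+1). Those UMIs, each 12 nt long, tagged donor and donor-binding-loop pairs on a plasmid with a promoterless kanamycin gene, screened as a pool in Escherichia coli with IPTG (0.07 mM) plus kanamycin or without selection.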
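Also: IS621 bridge recombinase in Escherichia coli cells against a fixed T5 target plasmid.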

With “AGTTTCCCATGGACCGGTTTTCCCGGTAATCCGTATTTGTG (site AGTTTCCCTCA)”, the “recombinant UMI read abundance (log10)” value is 0.0252.
Take “AGTTTGCCATGGACCGGTTTTCCCGGTAATCCGTATTTGAA (site AGTTTGCCTTT)”: the “recombinant UMI read abundance (log10)” value was found to be 0.00758.
“ATAAACCCATGGACCGGTTTTCCCGGTAATCCGTATTTGAT (site ATAAACCCTAT)”: the “recombinant UMI read abundance (log10)” value is 1.19.
For “ATAAACTCATGGACCGGTTTTCCCGGTAATCCGTATTTGCG (site ATAAACTCTCG)”, the “recombinant UMI read abundance (log10)” value worked out at 3.23.
“ATAAAGGCATGGACCGGTTTTCCCGGTAATCCGTATTTGCT (site AAAAAGGCTAG)”: the “recombinant UMI read abundance (log10)” value is 0.238.
With “ATAAAGGCATGGACCGGTTTTCCCGGTAATCCGTATTTGCT (site ACAAAGGCTAG)”, the “recombinant UMI read abundance (log10)” value was 1.63.
For “ATAAAGGCATGGACCGGTTTTCCCGGTAATCCGTATTTGCT (site AGAAAGGCTAG)”, the “recombinant UMI read abundance (log10)” value amounted to 0.349.
Turning to “ATAAAGGCATGGACCGGTTTTCCCGGTAATCCGTATTTGCT (site ATAAAGGCTAG)”, the “recombinant UMI read abundance (log10)” value was 2.75.
Take “ATAACGCCATGGACCGGTTTTCCCGGTAATCCGTATTTGAG (site ATAACGCCTCT)”: the “recombinant UMI read abundance (log10)” value amounted to 0.00694.
Consider “ATAACGCCATGGACCGGTTTTCCCGGTAATCCGTATTTGTC (site ATAACGCCTGA)”, for which the “recombinant UMI read abundance (log10)” value was found to be 1.58.
As for “ATAAGGCCATGGACCGGTTTTCCCGGTAATCCGTATTTGAA (site ATAAGGCCTAT)”, the “recombinant UMI read abundance (log10)” value turned out to be 0.00331.
On to “ATAAGGCCATGGACCGGTTTTCCCGGTAATCCGTATTTGAA (site ATAAGGCCTCT)”, for which the “recombinant UMI read abundance (log10)” value stood at 0.0201.
Turning to “ATAAGGCCATGGACCGGTTTTCCCGGTAATCCGTATTTGAA (site ATAAGGCCTGT)”, the “recombinant UMI read abundance (log10)” value worked out at 0.
As for “ATAAGGCCATGGACCGGTTTTCCCGGTAATCCGTATTTGAA (site ATAAGGCCTTT)”, the figure is 0.404; as for “ATAAGGCCATGGACCGGTTTTCCCGGTAATCCGTATTTGAG (site ATAAGGCCTAT)”, 0.00358.
In the case of “ATAAGGCCATGGACCGGTTTTCCCGGTAATCCGTATTTGAG (site ATAAGGCCTCT)”, the “recombinant UMI read abundance (log10)” value was 0.325.
“ATAAGGCCATGGACCGGTTTTCCCGGTAATCCGTATTTGAG (site ATAAGGCCTGT)”: the “recombinant UMI read abundance (log10)” value is 0.
For “ATAAGGCCATGGACCGGTTTTCCCGGTAATCCGTATTTGAG (site ATAAGGCCTTT)”, the “recombinant UMI read abundance (log10)” value came to 0.025.
As to “ATAAGGGCATGGACCGGTTTTCCCGGTAATCCGTATTTGAC (site ATAAGGACTGT)”, the “recombinant UMI read abundance (log10)” value is 2.61.
As for “ATAAGGGCATGGACCGGTTTTCCCGGTAATCCGTATTTGAC (site ATAAGGCCTGT)”, the figure is 0.00415; as for “ATAAGGGCATGGACCGGTTTTCCCGGTAATCCGTATTTGAC (site ATAAGGGCTGT)”, 2.79.
For the sequence “ATAAGGGCATGGACCGGTTTTCCCGGTAATCCGTATTTGAC (site ATAAGGTCTGT)”, the “recombinant UMI read abundance (log10)” value amounted to 2.53.
Take “ATAAGGTCATGGACCGGTTTTCCCGGTAATCCGTATTTGAC (site ATAAGGACTGT)”: the “recombinant UMI read abundance (log10)” value was 1.91.
For the sequence “ATAAGGTCATGGACCGGTTTTCCCGGTAATCCGTATTTGAC (site ATAAGGCCTGT)”, the “recombinant UMI read abundance (log10)” value is 1.04.
As to “ATAAGGTCATGGACCGGTTTTCCCGGTAATCCGTATTTGAC (site ATAAGGGCTGT)”, the “recombinant UMI read abundance (log10)” value was 0.526.
In the case of “ATAAGGTCATGGACCGGTTTTCCCGGTAATCCGTATTTGAC (site ATAAGGTCTGT)”, the “recombinant UMI read abundance (log10)” value is 3.4.
With “ATACACACATGGACCGGTTTTCCCGGTAATCCGTATTTGGG (site ATACACACTCC)”, the “recombinant UMI read abundance (log10)” value worked out at 0.537.
Turning to “ATACAGCCATGGACCGGTTTTCCCGGTAATCCGTATTTGGT (site ATACAGCCTAC)”, the “recombinant UMI read abundance (log10)” value turned out to be 0.00946.
With “ATACATCCATGGACCGGTTTTCCCGGTAATCCGTATTTGAC (site AAACATCCTGT)”, the “recombinant UMI read abundance (log10)” value was 0.
As for “ATACATCCATGGACCGGTTTTCCCGGTAATCCGTATTTGAC (site ACACATCCTGT)”, the “recombinant UMI read abundance (log10)” value amounted to 0.
As for “ATACATCCATGGACCGGTTTTCCCGGTAATCCGTATTTGAC (site AGACATCCTGT)”, the figure is 0.
Regarding “ATACATCCATGGACCGGTTTTCCCGGTAATCCGTATTTGAC (site ATACATCCTGT)”, the “recombinant UMI read abundance (log10)” value was found to be 1.12.
On to “ATACGAACATGGACCGGTTTTCCCGGTAATCCGTATTTGTC (site AAACGAACTGA)”, for which the “recombinant UMI read abundance (log10)” value amounted to 0.
Take “ATACGAACATGGACCGGTTTTCCCGGTAATCCGTATTTGTC (site ACACGAACTGA)”: the “recombinant UMI read abundance (log10)” value was found to be 0.
The result for “ATACGAACATGGACCGGTTTTCCCGGTAATCCGTATTTGTC (site AGACGAACTGA)” reads 0; that for “ATACGAACATGGACCGGTTTTCCCGGTAATCCGTATTTGTC (site ATACGAACTGA)”, 2.83; that for “ATACGGACATGGACCGGTTTTCCCGGTAATCCGTATTTGAA (site ATACGGACTTT)”, 1.39.
As to “ATACTATCATGGACCGGTTTTCCCGGTAATCCGTATTTGCA (site ACAGTATCTTG)”, the “recombinant UMI read abundance (log10)” value worked out at 1.72.
For “ATACTATCATGGACCGGTTTTCCCGGTAATCCGTATTTGCA (site ATACTATCTTG)”, the “recombinant UMI read abundance (log10)” value was determined as 2.84.
As to “ATAGACCCATGGACCGGTTTTCCCGGTAATCCGTATTTGAT (site ATAGACCCTAT)”, the “recombinant UMI read abundance (log10)” value amounted to 1.21.
For the sequence “ATAGAGACATGGACCGGTTTTCCCGGTAATCCGTATTTGGT (site ATAGAGACTAC)”, the “recombinant UMI read abundance (log10)” value came to 1.75.
The result for “ATAGAGACATGGACCGGTTTTCCCGGTAATCCGTATTTGGT (site ATCGAGACTAC)” reads 0.671; that for “ATAGAGACATGGACCGGTTTTCCCGGTAATCCGTATTTGGT (site ATGGAGACTAC)”, 0.992.
As for “ATAGAGACATGGACCGGTTTTCCCGGTAATCCGTATTTGGT (site ATTGAGACTAC)”, the figure is 1.03; as for “ATAGATACATGGACCGGTTTTCCCGGTAATCCGTATTTGCC (site ATAGATACTGG)”, 2.54.
For the sequence “ATAGCCTCATGGACCGGTTTTCCCGGTAATCCGTATTTGTA (site ATAGCCTCTTA)”, the “recombinant UMI read abundance (log10)” value came to 2.86.
On to “ATAGCTACATGGACCGGTTTTCCCGGTAATCCGTATTTGCG (site ATAGCTACTCG)”, for which the “recombinant UMI read abundance (log10)” value was determined as 2.1.
The result for “ATAGCTACATGGACCGGTTTTCCCGGTAATCCGTATTTGTA (site ATAGCTACTTA)” reads 2.3.
As to “ATAGGTACATGGACCGGTTTTCCCGGTAATCCGTATTTGAC (site ATAGGTACTGT)”, the “recombinant UMI read abundance (log10)” value amounted to 2.8.
Consider “ATAGGTACATGGACCGGTTTTCCCGGTAATCCGTATTTGAC (site CTAGGTACTGT)”, for which the “recombinant UMI read abundance (log10)” value amounted to 1.97.
Consider “ATAGGTACATGGACCGGTTTTCCCGGTAATCCGTATTTGAC (site GTAGGTACTGT)”, for which the “recombinant UMI read abundance (log10)” value is 1.68.
Regarding “ATAGGTACATGGACCGGTTTTCCCGGTAATCCGTATTTGAC (site TTAGGTACTGT)”, the “recombinant UMI read abundance (log10)” value worked out at 2.15.
Regarding “ATAGTAGCATGGACCGGTTTTCCCGGTAATCCGTATTTGCA (site ACAGTATCTTG)”, the “recombinant UMI read abundance (log10)” value amounted to 0.993.
Turning to “ATAGTAGCATGGACCGGTTTTCCCGGTAATCCGTATTTGCA (site ATAGTAGCTTG)”, the “recombinant UMI read abundance (log10)” value was determined as 3.08.
For the sequence “ATAGTATCATGGACCGGTTTTCCCGGTAATCCGTATTTGAC (site ATAGTATCTGT)”, the “recombinant UMI read abundance (log10)” value stood at 3.75.
“ATAGTATCATGGACCGGTTTTCCCGGTAATCCGTATTTGAC (site CTAGTATCTGT)”: the “recombinant UMI read abundance (log10)” value worked out at 2.94.
Regarding “ATAGTATCATGGACCGGTTTTCCCGGTAATCCGTATTTGAC (site GTAGTATCTGT)”, the “recombinant UMI read abundance (log10)” value was determined as 2.49.
Consider “ATAGTATCATGGACCGGTTTTCCCGGTAATCCGTATTTGAC (site TTAGTATCTGT)”, for which the “recombinant UMI read abundance (log10)” value turned out to be 2.66.
As for “ATAGTATCATGGACCGGTTTTCCCGGTAATCCGTATTTGCA (site AAAGTATCTTG)”, the figure is 2.4.
For “ATAGTATCATGGACCGGTTTTCCCGGTAATCCGTATTTGCA (site ACAGTATCTTG)”, the “recombinant UMI read abundance (log10)” value worked out at 2.34.
Regarding “ATAGTATCATGGACCGGTTTTCCCGGTAATCCGTATTTGCA (site AGAGTATCTTG)”, the “recombinant UMI read abundance (log10)” value was 2.15.
As for “ATAGTATCATGGACCGGTTTTCCCGGTAATCCGTATTTGCA (site ATAGTATCTTG)”, the figure is 3.37.
For “ATAGTATCATGGACCGGTTTTCCCGGTAATCCGTATTTGCC (site ATAGTATCTGG)”, the “recombinant UMI read abundance (log10)” value was 3.34.
Consider “ATAGTATCATGGACCGGTTTTCCCGGTAATCCGTATTTGCC (site CTAGTATCTGT)”, for which the “recombinant UMI read abundance (log10)” value was 0.756.
As for “ATATACCCATGGACCGGTTTTCCCGGTAATCCGTATTTGCG (site ATATACCCTCG)”, the figure is 0.817; as for “ATATATGCATGGACCGGTTTTCCCGGTAATCCGTATTTGCT (site ATATATGCTAG)”, 2.99; as for “ATATCACCATGGACCGGTTTTCCCGGTAATCCGTATTTGCT (site ATATCACCTAG)”, 0.
The result for “ATATCATCATGGACCGGTTTTCCCGGTAATCCGTATTTGCG (site ATATCATCTCG)” reads 2.11.
